# Assay results reported in patent publication US20240366612A1, “COMPOUNDS AND METHODS FOR MODULATING NUCLEIC ACID SPLICING” (REMIX THERAPEUTICS INC., priority 2021, published 2024).
# Counter-ions that a name gives are not always drawn.
# Legend:
# HTT mRNA = test: Splicing RT-qPCR assay, HTT canonical (CJ) and alternative (AJ) junction mRNA; type: cell-based; conditions: Homo sapiens, A673 or K562 cells, 24 hours treatment; for IC50: decrease in CJ mRNA; for AC50: increase in AJ mRNA
# Procedure: (§1) Compounds described herein were used to modulate RNA transcript abundance in cells. The expression of a target mRNA was measured by detecting the formation of an exon-exon junction in the canonical transcript (CJ). A compound mediated exon-inclusion event was detected by observing an increase in formation of a new junction with an alternative exon (AJ). Real-time qPCR assays were used to detect these splicing switches and interrogate the potency of various compounds towards different target genes. A high-throughput real time quantitative PCR (RT-qPCR) assay was developed to measure these two isoforms of the mRNA (CJ and AJ) for exemplary genes, such as HTT, SMN2, and MYB, together with a control housekeeping gene, GAPDH or GUSB or PPIA, used for normalization. Briefly, the A673 or K562 cell line was treated with various compounds described herein (e.g., compounds of Formula (I)). After treatment, the levels of the HTT, MYB, or SMN2 mRNA targets were determined from each sample of cell lysate by cDNA synthesis followed by qPCR.
# • Cells-to-CT 1-step kit: ThermoFisher A25602, Cells-to-CT lysis reagent: ThermoFisher 4391851C, TaqMan™ Fast Virus 1-Step Master Mix: ThermoFisher 4444436 • GAPDH: VIC-PL, ThermoFisher 4326317E (Assay: Hs99999905_ml)—used for K562/suspension cell lines • GUSB: VIC-PL, ThermoFisher 4326320E (Assay: Hs99999908_ml)—used for K562/suspension cell lines • PPIA: VIC-PL, ThermoFisher 4326316E (Assay: Hs99999904_ml)—used for A673/adherent cell lines
# (§2) The A673 cell line was cultured in DMEM with 10% FBS. Cells were diluted with full growth media and plated in a 96-well plate (15,000 cells in 100 ul media per well). The plate was incubated at 37° C. with 5% CO2 for 24 hours to allow cells to adhere. An 11-point 3-fold serial dilution of the compounds was made in DMSO then diluted in media in an intermediate plate. Compounds were transferred from the intermediate plate to the cell plate with the top dose at a final concentration of 10 uM in the well. Final DMSO concentration was kept at or below 0.25%. The cell plate was returned to the incubator at 37° C. with 5% CO2 for an additional 24 hours.
# (§3) The K562 cell line was cultured in IMDM with 10% FBS. For K562, cells were diluted with full growth media and plated in either a 96-well plate (50,000 cells in 50 uL media per well) or a 384-well plate (8,000-40,000 cells in 45 uL media per well). An 11-point 3-fold serial dilution of the compounds were made in DMSO then diluted in media in an intermediate plate. Compound was transferred from the intermediate plate to the cell plate with the top dose at a final concentration of 10 uM in the well. Final DMSO concentration was kept at or below 0.25%. Final volume was 100 uL for 96-well plate and 50 uL for 384-well plate. The cell plate was then placed in an incubator at 37° C. with 5% CO2 for 24 hours.
# The cells were then gently washed with 50 uL-100 uL cold PBS before proceeding to addition of lysis buffer. 30 uL-50 μL of room temperature lysis buffer with DNAse I (and optionally RNAsin) was added to each well. Cells were shaken/mixed thoroughly at room temperature for 5-10 minutes for lysis to take place and then 3 uL-5 μL of room temperature stop solution was added and wells were shaken/mixed again. After 2-5 minutes, the cell lysate plate was transferred to ice for RT-qPCR reaction setup. The lysates could also be frozen at −80° C. for later use.
# In some cases, a direct lysis buffer was used. An appropriate volume of 3×lysis buffer (10 mM Tris, 150 mM NaCl, 1.5%-2.5% Igepal and 0.1-1 U/uL RNAsin, pH 7.4) was directly added to either K562 or A673 cells in media and mixed by pipetting 3 times. The plates were then incubated at room temperature with shaking/rocking for 20-50 minutes to allow for lysis to take place. After this time, the cell lysate plate was transferred to ice to set up for the RT-qPCR reactions. The lysates could also be frozen at −80° C. for later use. […]
# MYB CJ mRNA = test: Gene panel canonical junction qPCR assay, MYB; type: cell-based; conditions: Homo sapiens, larger gene panel, read-out: MYB IC50 (decrease in CJ mRNA levels)
# Procedure: as §1, §2, §3
# (§4) The data analysis was performed by first determining the ΔCt vs the housekeeper gene. This ΔCt was then normalized against the DMSO control (ΔΔCt) and converted to RQ (relative quantification) using the 2^(−ΔΔCt) equation. The RQ were then converted to a percentage response by arbitrarily setting an assay window of 3.5 and 4.0 ΔCt for HTT-CJ and MYB-CJ respectively and an assay window of 9 and 3 ΔCt for HTT-AJ and MYB-AJ in 96 well format (50,000 K562 cells/well and 15,000 A673 cells per well) and an assay window of 3 and 4 ΔCt for HTT-CJ and MYB-CJ respectively and an assay window of 5 and 3 ΔCt for HTT-AJ and MYB-AJ respectively in 384 well format (8,000 K562 cells/well example). […] The percentage response was then fitted to the 4 parametric logistic equation to evaluate the concentration dependence of compound treatment. The increase in AJ mRNA is reported as AC50 (compound concentration having […] in AJ increase) while the decrease in CJ mRNA levels is reported as IC50 (compound concentration having 50% response in CJ decrease).
# (§5) Additional studies were carried out for a larger panel of genes using the protocol provided above. The junction between flanking upstream and downstream exons was used to design canonical junction qPCR assays. At least one of the forward primer, reverse primer or the CY5-labeled 5′ nuclease probe (with 3′ quencher such as ZEN/Iowa Black FQ) was designed to overlap with the exon junction to capture the CJ mRNA transcript. […]
# SMN2 CJ mRNA = test: Gene panel canonical junction qPCR assay, SMN2; type: cell-based; conditions: Homo sapiens, larger gene panel, read-out: SMN2 IC50 (decrease in CJ mRNA levels)
# Procedure: as §1, §2, §3, §4, §5
# Target C CJ mRNA = test: Gene panel canonical junction qPCR assay, Target C; type: cell-based; conditions: Homo sapiens, larger gene panel, read-out: Target C IC50 (decrease in CJ mRNA levels)
# Procedure: as §1, §2, §3, §4, §5
# [1] = Cell Titer Glo 2.0 cell viability assay; conditions: human, K562 cells
Compound,IC50 (HTT mRNA),IC50 (MYB CJ mRNA),IC50 (SMN2 CJ mRNA),IC50 (Target C CJ mRNA),AC50 (HTT mRNA),GI50 at 72 h [1]
"Cc1cn2cc(-c3cc(=O)n4nc(N5CCN(C)CC5)sc4n3)cc(F)c2n1 [Compound 159, 7-(8-fluoro-2-methylimidazo[1,2-a]pyridin-6-yl)-2-(4-methylpiperazin-1-yl)-5H-[1,3,4]thiadiazolo[3,2-a]pyrimidin-5-one]",1000 to 10000 nM,1000 to 10000 nM,1000 to 10000 nM,1000 to 10000 nM,1000 to 10000 nM,1000 to 10000 nM
"Cc1cc(-c2cc(=O)n3cc(N4CCN(C)CC4)sc3n2)cc2cn(C)nc12 [Compound 109, 7-(2,7-dimethyl-2H-indazol-5-yl)-2-(4-methylpiperazin-1-yl)-5H-thiazolo[3,2-a]pyrimidin-5-one]",> 10000 nM,> 10000 nM,> 10000 nM,> 10000 nM,> 10000 nM,1000 to 10000 nM
"Cc1cn2cc(-c3nn4c(=O)cc(N5CCN(C)CC5)nc4s3)cc(F)c2n1 [Compound 217, 2-(8-fluoro-2-methylimidazo[1,2-a]pyridin-6-yl)-7-(4-methylpiperazin-1-yl)-5H-[1,3,4]thiadiazolo[3,2-a]pyrimidin-5-one]",1000 to 10000 nM,1000 to 10000 nM,1000 to 10000 nM,1000 to 10000 nM,1000 to 10000 nM,1000 to 10000 nM
"Cc1cn2nc(-c3cc(=O)n4cc(N(C)C5CC(C)(C)NC(C)(C)C5)sc4n3)cc(C)c2n1 [Compound 205, 7-(2,8-dimethylimidazo[1,2-b]pyridazin-6-yl)-2-(methyl(2,2,6,6-tetramethylpiperidin-4-yl)amino)-5H-thiazolo[3,2-a]pyrimidin-5-one]",1000 to 10000 nM,1000 to 10000 nM,1000 to 10000 nM,1000 to 10000 nM,1000 to 10000 nM,
"Cc1cn2cc(-n3cnc4nc(N5CCN(C)CC5)sc4c3=O)cc(F)c2n1 [Compound 228, 6-(8-fluoro-2-methylimidazo[1,2-a]pyridin-6-yl)-2-(4-methylpiperazin-1-yl)thiazolo[4,5-d]pyrimidin-7(6H)-one]",1000 to 10000 nM,1000 to 10000 nM,1000 to 10000 nM,1000 to 10000 nM,1000 to 10000 nM,1000 to 10000 nM
"Cc1cc(-c2nc3ncn(C4CCN(C)CC4)c(=O)c3s2)cc2cn(C)nc12 [Compound 234, 2-(2,7-dimethyl-2H-indazol-5-yl)-6-(1-methylpiperidin-4-yl)thiazolo[4,5-d]pyrimidin-7(6H)-one]",100 to 1000 nM,100 to 1000 nM,< 100 nM,1000 to 10000 nM,100 to 1000 nM,100 to 1000 nM
"Cc1cn2cc(-n3cnc4nc(N(C)C5CC(C)(C)NC(C)(C)C5)sc4c3=O)cc(F)c2n1 [Compound 227, 6-(8-fluoro-2-methylimidazo[1,2-a]pyridin-6-yl)-2-(methyl(2,2,6,6-tetramethylpiperidin-4-yl)amino)thiazolo[4,5-d]pyrimidin-7(6H)-one, formate]",> 10000 nM,> 10000 nM,> 10000 nM,> 10000 nM,> 10000 nM,
"Cc1cn2cc(-c3nn4c(=O)cc(N(C)C5CC(C)(C)NC(C)(C)C5)nc4s3)cc(F)c2n1 [Compound 215, 2-(8-fluoro-2-methylimidazo[1,2-a]pyridin-6-yl)-7-(methyl(2,2,6,6-tetramethylpiperidin-4-yl)amino)-5H-[1,3,4]thiadiazolo[3,2-a]pyrimidin-5-one]",1000 to 10000 nM,1000 to 10000 nM,100 to 1000 nM,1000 to 10000 nM,1000 to 10000 nM,

# Second part, led by results:
IC50 (HTT mRNA),IC50 (MYB CJ mRNA),IC50 (SMN2 CJ mRNA),IC50 (Target C CJ mRNA),Compound,AC50 (HTT mRNA),GI50 at 72 h [1]
100 to 1000 nM,100 to 1000 nM,< 100 nM,100 to 1000 nM,"Cc1cn2cc(-c3cc4ncn(C5=CCNCC5)c(=O)c4s3)cc(F)c2n1 [Compound 276, 6-{8-fluoro-2-methylimidazo[1,2-a]pyridin-6-yl}-3-(1,2,3,6-tetrahydropyridin-4-yl)thieno[3,2-d]pyrimidin-4-one]",100 to 1000 nM,100 to 1000 nM
100 to 1000 nM,100 to 1000 nM,< 100 nM,1000 to 10000 nM,"Cc1cn2cc(-c3cc4ccn(C5CCN(C)CC5)c(=O)c4s3)cc(F)c2n1 [Compound 808, 2-(8-fluoro-2-methylimidazo[1,2-a]pyridin-6-yl)-6-(1-methylpiperidin-4-yl)thieno[2,3-c]pyridin-7(6H)-one]",1000 to 10000 nM,100 to 1000 nM
< 100 nM,100 to 1000 nM,< 100 nM,100 to 1000 nM,"Cc1cc(-c2cc3ncn(C4CCNCC4)c(=O)c3s2)cc2cn(C)nc12 [Compound 236, 6-(2,7-dimethyl-2H-indazol-5-yl)-3-(piperidin-4-yl)thieno[3,2-d]pyrimidin-4(3H)-one]",100 to 1000 nM,100 to 1000 nM
100 to 1000 nM,100 to 1000 nM,100 to 1000 nM,100 to 1000 nM,"Cc1cn2nc(-c3cc4ccn(C5CCNCC5)c(=O)c4s3)cc(C)c2n1 [Compound 806, 2-(2,8-dimethylimidazo[1,2-b]pyridazin-6-yl)-6-(piperidin-4-yl)thieno[2,3-c]pyridin-7(6H)-one]",100 to 1000 nM,100 to 1000 nM
1000 to 10000 nM,1000 to 10000 nM,1000 to 10000 nM,1000 to 10000 nM,COc1cc(-c2cc3ncn(C4CCNCC4)c(=O)c3s2)cnn1 [Compound 260],1000 to 10000 nM,1000 to 10000 nM
1000 to 10000 nM,1000 to 10000 nM,100 to 1000 nM,> 10000 nM,"Cc1nc(-c2nc3ncn(C4CCNCC4)c(=O)c3s2)cc2cn(C)nc12 [Compound 251, 2-(2,7-dimethyl-2H-pyrazolo[3,4-c]pyridin-5-yl)-6-(piperidin-4-yl)thiazolo[4,5-d]pyrimidin-7(6H)-one]",1000 to 10000 nM,1000 to 10000 nM
